Read-outs that look alike come from different tables or passages of the source.
What was measured:
human TLR7 = biological target: T1, human TLR7 (Homo sapiens, UniProt Q9NYK1); assay: HEK-Blue hTLR7 SEAP reporter assay; type: cell-based; conditions: for TLR7 activity rel. to assay max: average maximal SEAP secretion relative to maximum secretion observed in the assay
T1 construct: host or cells: HEK blue hTLR7 reporter cells
T1 sequence (Q9NYK1 27-1049): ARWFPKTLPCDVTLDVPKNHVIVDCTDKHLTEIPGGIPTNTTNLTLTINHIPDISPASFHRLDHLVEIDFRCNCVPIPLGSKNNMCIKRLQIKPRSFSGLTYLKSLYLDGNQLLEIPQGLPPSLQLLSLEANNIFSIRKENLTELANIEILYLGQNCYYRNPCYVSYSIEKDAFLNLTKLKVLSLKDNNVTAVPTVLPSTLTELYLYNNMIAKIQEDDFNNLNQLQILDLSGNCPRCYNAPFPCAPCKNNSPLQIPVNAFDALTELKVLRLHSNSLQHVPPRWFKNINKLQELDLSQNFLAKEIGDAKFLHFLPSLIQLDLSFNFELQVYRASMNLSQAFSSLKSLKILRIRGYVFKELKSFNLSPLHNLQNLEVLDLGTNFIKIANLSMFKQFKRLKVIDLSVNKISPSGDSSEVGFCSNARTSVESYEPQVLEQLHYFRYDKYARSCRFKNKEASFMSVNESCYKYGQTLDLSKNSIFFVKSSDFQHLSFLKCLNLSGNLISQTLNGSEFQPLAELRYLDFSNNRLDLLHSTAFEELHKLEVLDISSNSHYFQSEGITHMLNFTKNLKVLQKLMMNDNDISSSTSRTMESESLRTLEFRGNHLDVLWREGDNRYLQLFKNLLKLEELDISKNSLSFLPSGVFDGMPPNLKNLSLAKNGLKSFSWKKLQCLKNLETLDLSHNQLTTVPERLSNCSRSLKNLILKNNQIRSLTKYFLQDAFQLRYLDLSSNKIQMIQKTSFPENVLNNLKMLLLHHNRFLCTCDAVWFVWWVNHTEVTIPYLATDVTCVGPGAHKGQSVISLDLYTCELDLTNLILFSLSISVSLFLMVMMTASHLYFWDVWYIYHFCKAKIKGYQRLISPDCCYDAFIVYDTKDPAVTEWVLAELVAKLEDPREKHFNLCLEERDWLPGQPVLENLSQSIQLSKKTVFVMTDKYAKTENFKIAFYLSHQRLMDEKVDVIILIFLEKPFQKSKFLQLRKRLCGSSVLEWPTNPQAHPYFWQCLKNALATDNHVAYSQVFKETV
Method: HEK blue hTLR7 or hTLR8 reporter cells (Invivogen) were cultivated in DMEM High Glucose (Biowest) according to the manufacturer’s instructions. Cells were treated with test compounds and controls at various concentrations in serum-free DMEM and incubated at 37°C, 5% CO2 for 24 h before supernatants were collected.
Relative secreted embryonic alkaline phosphatase (SEAP) activity in the supernatants was determined by quantification of para-Nitrophenyl Phosphate (pNPP)-turnover. Supernatants were diluted 10-fold in a solution containing 1 mM MgCl2, 1 M diethanolamine and 1 mg/mL pNPP and incubated at RT for 15 min before the reaction was stopped by the addition of 0.25 volumes of 1 M NaOH. Absorbance was measured at 405 nm on a Versamax microplate reader (Molecular Devices) and normalized to the mean of >5 solvent controls.
To obtain reliable estimates, replicate measurements of a minimum of 2 experiments were normalized to the maximal SEAP activity of a compound in a given experiment and pooled before fitting a non-linear function to the data.

[1] = Cassette bioavailability i.v., i.p., p.o. (blood and organ concentrations by HPLC-MS/MS); type: in vivo, C57BL/6 mice; conditions: for concentration at 1440 min / Cmax: female, C57BL/6, mouse; for Cmax: 15 min after application
Method: All samples were extracted with 3 or 6 volumes acetonitrile containing terbuthylazine as an internal standard (ACN) relative to either sample weight or volume. Liquid samples (plasma, culture medium, cell suspensions in stability experiments) were diluted in either 3 (culture medium, cell suspensions) or 6 (plasma) volumes ACN, pellet and blood samples were extracted by addition of ACN followed by sonication for 5 min. Organ samples were digested with 0.5 µg/mg Proteinase K (Genaxxon) for 1 h at 50°C before being homogenized using a Fastprep FP-24 5G instrument (MP-Biomedicals). Homogenates were diluted with 6 volumes ACN and homogenized again. All extracts were cleared by centrifugation at ~20.000xg for 10 min at 4°C.
Quantification of analytes was performed on an Agilent 1260/1290 Infinity system fitted with an Agilent C18 Poroshell 120 column (4.6 x 50 mm, 2.7 µm) coupled to a triple quadrupole Sciex API 4000 MS/MS detector. The mobile phase was composed of water containing 0.1% formic acid (eluent A) and acetonitrile containing 0.1% formic acid (eluent B). Gradient used was: 5% B for 0.5 min, to 100% B in 4.5 min, 100% B for 2 min, to 5% B in 0.5 min, 5% for 2.5 min. MS detection parameters are listed in SI Table S1 .
Experimental Animals. All animal experiments were carried out in accordance with German law (35/9183.81-7/SYN 06/20). Mice, 8-18 weeks old, were purchased from Janvier Laboratories and maintained in a specific-pathogen-free animal facility with chow and water ad libitum. After arrival mice acclimated for a minimum of 7 days.
Formulation. Test compounds were prepared for application in either 1% Tween 80, 9% PEG400 in ultrapure water (Biowest) (i.v., i.p., p.o. application) or 5 mM citric acid in 0.9% saline (Braun) (subcutaneous application). If compounds were administered subcutaneously, injections were carried out into the neck crease.
Collection of Samples. Mice were bled from the tail vein at various timepoints. Heparin (Sigma) or K2-EDTA (Sigma) was added to blood samples to a final […] concentration of 10-15 Unit or 5 mM. Plasma was generated by centrifugation at 6800xg for 8 min at 4°C and stored at -80°C until analyzed by ELISA or CBA. Animals were sacrificed after the indicated time points by CO2 inhalation. Heart blood and organs for compound quantification by HPLC-MS/MS were collected post mortem and stored at –20°C until extracted as described above.
Figure 3 Stability and bioavailability of macrolide conjugates. (A) Stability of A1-mac and A2-mac was measured in human blood, U937 monocytes and RPMI medium over 24 h. […] (B) Peripheral blood was collected 15, 30 60, 120, 180, 240, 360 and 1440 min after compound administration. (C) Organs were sampled 1440 min after compound administration. (A–C) Data are presented as mean ± SD.

[2] = 95% CI, HEK-blue human TLR7, 24 h, read-out: TLR7 EC50
[3] = Figure S3, axis c/[µM], pooled from 3 experiments, read-out: compound-specific EC50 in dose response plot, HEK Blue hTLR7
[4] = kidney, ip, i.p. 2 mg/kg, organs sampled 1440 min after administration, read-out: concentration in kidney
[5] = liver, ip, i.p. 2 mg/kg, organs sampled 1440 min after administration, read-out: concentration in liver
[6] = whole blood (tail vein), iv, i.v. 0.5 mg/kg, tail vein blood

Row | Average maximal activity in HEK-Blue hTLR7 relative to RSQ (human TLR7) [%] | EC50 (human TLR7; [2]) [µM] | EC50 (human TLR7; [3]) [µM] | TLR7 activity rel. to assay max (human TLR7) | concentration at 1440 min [1, 4] [nM] | concentration at 1440 min [1, 5] [nM] | Cmax [1, 6] [nM] | Cmax ([1]; whole blood, ip, i.p. 2 mg/kg) [nM] | Cmax ([1]; whole blood, po, p.o. 2 mg/kg) [nM] | concentration in liver ([1]; i.p. 2 mg/kg, organs sampled 1440 min after administration) | SMILES
1 | 58 | 0.096 to 0.22 | 0.146 | 58% ± 16% | – | – | – | – | – | – | CCCCc1nc2c(N)nc3ccccc3c2n1CCC1CCNCC1 [A1]
2 | 41 | 0.4 to 0.74 | 0.554 | 41% ± 8% | 586 | 3390 | 392 | 299 | 28 | – | CCCCc1nc2c(N)nc3ccccc3c2n1CCC1CCN(C(=O)CN(C)CC(=O)N(C)C2CC(C)OC(OC3C(C)C(OC4CC(C)(OC)C(O)C(C)O4)C(C)C(=O)OC(CC)C(C)(O)C(O)C(C)N(C)CC(C)CC3(C)O)C2O)CC1 (stereo not drawn) [A1-mac]
3 | 63 | 1.5 to 2 | 1.76 | 63% ± 9% | 449 | 2520 | 352 | 138 | 22 | – | CCCCc1nc2c(N)nc3ccccc3c2n1CC1CCN(C(=O)CN(C)CC(=O)N(C)[C@H]2C[C@@H](C)O[C@@H](O[C@@H]3[C@@H](C)[C@H](O[C@H]4C[C@@](C)(OC)[C@@H](O)[C@H](C)O4)[C@@H](C)C(=O)O[C@H](CC)[C@@](C)(O)[C@H](O)[C@@H](C)N(C)C[C@H](C)C[C@@]3(C)O)[C@@H]2O)CC1 [A2-mac]
4 | – | – | – | 95% ± 5% | – | – | 854 | 123 | 41 | < LOD | CCOCc1nc2c(N)nc3ccccc3c2n1CC(C)(C)O [RSQ, Resiquimod, reference compound]

— article PMC10319141, “Imidazoquinolines with improved pharmacokinetic properties induce a high IFNα to TNFα ratio in vitro and in vivo” (Frontiers in Immunology, 2023)
